pEC50: −log10 of the molar value. Entries after “also recorded” stand apart in the source; their conditions may differ.
What was measured:
MDCK cells = experiment: Modulation of cisplatin-induced caspase 3/7 activity in MDCK cells; assay type: cell-based; conditions: for pEC50: Canis lupus familiaris, MDCK
Procedure: MDCK cells are cultured in base medium to a final concentration of 10%. Cells are plated into 96 wells and 24 hours after cell plating the medium is changed with fresh medium supplemented with 1% FBS. Cisplatin is then used to induce cell injury. Different concentrations of Formula (I), Formula (Ia), Formula (Ib), Formula (II), or Formula (III), or a pharmaceutically acceptable salt thereof (in DMSO) are added in combination with cisplatin or prior to adding cisplatin. Caspase 3/7 activity (Promega) is determined according to standard procedures using a luminescent signal readout on a plate reader. Each experiment/condition is performed in triplicate. Caspase activity is analyzed as percentage effect normalized to the cisplatin alone and vehicle treated cells.
An in vitro study was performed to determine the effects of compounds of Formula (I), Formula (Ia), Formula (Ib), Formula (II), or Formula (III), or a pharmaceutically acceptable salt thereof, on Acute Kidney Injury in MDCK cells.
MDCK cells (MDCK (NBL-2) ATCC® CCL-34™) were cultured in base medium ATCC-formulated Eagle's Minimum Essential Medium, Catalog No. 30-2003 with fetal bovine serum (FBS) to a final concentration of 10%. 10,000 cells were plated into 96 wells and 24 hours after cell plating the medium was changed with fresh medium supplemented with 1% FBS. Cisplatin (50 μM for 16 hrs) was then used to induce cell injury. Different concentrations of Compound 18 (in 1% DMSO) were added in combination with cisplatin (FIG. 1) or 1 hour prior adding cisplatin (FIG. 2).
Caspase 3/7 activity (Promega) was determined according to standard procedures using a luminescent signal readout on a Victor V plate reader (PerkinElmer). Each experiment/condition was performed in triplicate.
Caspase activity was analyzed as percentage effect normalized to the cisplatin alone (100%) and vehicle treated cells as 0% of caspase activity. Data were analyzed by GraphPad Software. One-way analysis of variance (Dunnett's Multiple Comparison test) was used for statistical analyses.

HePG2 cells = experiment: Cytotoxicity in HePG2 cells (LDH release, ATP level); assay type: cell-based; conditions: 10 nM to 300 μM, 4 hrs
Procedure: (§1) HePG2 and AML-12 cells are seeded and a dose-response of the compound is performed at various concentrations. Cells are stimulated and the supernatant is used to perform LDH release as a measure of necrosis while the cells are lysed to detect ATP levels for determining cell viability.
(§2) Cytotoxicity: 20000 HePG2 and AML-12 cells were seeded in 96 well plate (Viewplate PerkinElmer). Dose-response of the compound in Table 2 was performed using HP D300 digital dispenser, ranging from 10 nM to 300 μM with constant DMSO 1% in medium. Cells were stimulated for 4 hrs at 37° C.; the supernatant was used to perform LDH release (Cytotox-one, Promega) as a measure of necrosis while the cells were lysed to detect ATP level for determining cell viability (Celltiter-glo, Promega) according to manufacturer's instructions.

AML-12 cells [1] = experiment: Cytotoxicity in AML-12 cells (LDH release, ATP level); assay type: cell-based, mouse; conditions: 10 nM to 300 μM, 4 hrs
Procedure: as §1, §2

[2] = system: SOD2 activity in AML-12 cells; experiment: Modulation of SOD2 activity in AML-12 cells; assay type: cell-based, mouse; conditions: 24 hours
Procedure: Primary hepatocytes or AML-12 cells are lysed and total protein concentration is determined using the Bradford assay. SOD2 activity is determined at indicated times after treatment with a compound of Formula (I), Formula (Ia), Formula (Ib), Formula (II), or Formula (III), or a pharmaceutically acceptable salt thereof, using a SOD Assay Kit. Absorbance is determined and results are expressed in U/ml/mg of protein according to the standard curve and measured protein concentration. […]
(§3) Primary hepatocytes or AML-12 cells were then lysed in a 20 mM HEPES buffer (Gibco), pH 7.2, containing 1 mM EGTA (Sigma), 210 mM mannitol (Sigma), and 70 mM sucrose (AMRESCO). Total protein concentration was determined using the Bradford assay (BioRad). SOD-2 activity was determined at indicated times after ACMSD inhibitor treatment by the SOD Assay Kit (Cayman Chemical) according to the manufacturer's instructions. […] Absorbance was determined with a Victor X4 multi-label plate reader (Perkin-Elmer) at 450 nm. Results are expressed in U/ml/mg of protein according to the standard curve and measured protein concentration.

[3] = system: FoxO1 phosphorylation at Ser256; experiment: FoxO1 phosphorylation levels in AML-12 cells (western blot); assay type: cell-based, mouse; conditions: 24 hours, increasing dose
Procedure: AML-12 cells are treated with different concentrations of a compound of Formula (I), Formula (Ia), Formula (Ib), Formula (II), or Formula (III), or a pharmaceutically acceptable salt thereof. Cells are then lysed, and analyzed by SDS-PAGE/western blot. Blocking and antibody incubations are then done and each protein present is detected with its specific antibody.
AML-12 cells were treated with different concentrations of Compound 1 or Compound 17 for 24 hours. Cells were then lysed in lysis buffer (50 mM Tris, 150 mM KCl, EDTA 1 mM, NP40 1%) containing protease and phosphatase inhibitors, and analyzed by SDS-PAGE/western blot. Blocking and antibody incubations were done in 5% milk. Each protein present was detected with its specific antibody. Tubulin antibody was obtained from Sigma Inc, FoxO1 and phopho-FoxO1 (Ser256) antibodies were obtained from Cell Signaling. Antibody detection reactions were developed by enhanced chemiluminescence (Advansta, Calif., USA) using x-ray films.

ACMSD-1 = ACMSD-1 (Homo sapiens (Human), UniProt Q8TDX5); experiment: ACMSD-1 modulation in HEK293T cells transiently expressing ACMSD; assay type: cell-based; conditions: about 50 nM to about 5 uM; stimulated 48 hrs to 72 hrs
Procedure: HEK293T cells are seeded and transfected to transiently express ACMSD. The cells are then stimulated with different concentrations of Compound 1, and then lysed to measure the ACMSD activity in a spectrophotometrical in vitro assay. The amount of the whole protein content in cell lysates is detected by Bradford analysis and used to get the specificity activity of the enzyme normalized in all samples.
HEK293T cells (ATCC) were seeded in six-well plates and transfected using Fugene HD to express transiently ACMSD. 24 hrs post transfection, the cells were stimulated for 48 hrs to 72 hrs with different concentrations of Compound 1 and then lysed to measure the ACMSD activity, by measuring the conversion of 30H-Anthranilic Acid into product (i.e. α-amino-beta-carboxymuconate-ε-semialdehyde, ACMS) in a spectrophotometrical in vitro assay. The amount of the whole protein content in cell lysates was detected by Bradford analysis. This value was used to get the specificity activity of the enzyme normalized in all samples (mU/ml or ΔE/Δt/mg of total protein).
Having determined the optimum stimulation time and transfection protocol cells were stimulated with different concentrations of Compound 1 (about 50 nM to about 5 uM).

[4] = system: SOD2 activity in primary murine hepatocytes; experiment: Modulation of SOD2 activity in murine primary hepatocytes; assay type: cell-based, mouse; conditions: for SOD2 activity: primary murine hepatocytes, 24 hours
Procedure: Primary hepatocytes or AML-12 cells are lysed and total protein concentration is determined using the Bradford assay. SOD2 activity is determined at indicated times after treatment with a compound of Formula (I), Formula (Ia), Formula (Ib), Formula (II), or Formula (III), or a pharmaceutically acceptable salt thereof, using a SOD Assay Kit. Absorbance is determined and results are expressed in U/ml/mg of protein according to the standard curve and measured protein concentration.
Primary hepatocytes were prepared from 8-12-week-old C57BL/6J mice by collagenase perfusion method. Mouse livers were perfused with Hank's balanced salt solution (HBSS, KCl, 5.4 mM; KH2PO4, 0.45 mM; NaCl, 138 mM; NaHCO3, 4.2 mM; Na2HPO4, 0.34 mM; glucose, 5.5 mM; […]; EGTA, 50 mM; CaCl2, 50 mM; pH 7.4). Livers were then washed at a rate of 5 ml/min through the portal vein. After washing, livers were perfused with collagenase (0.025%) solution. Cell viability was assessed by the trypan blue method. Isolated primary hepatocytes were plated with DMEM medium (Gibco) including 10% FCS, 10 units per ml penicillin and HEPES for buffering. The cells were maintained in culture at 37° C. in a humidified atmosphere of 5% CO2/95% air. After 6-8 hrs of attachment, this medium was replaced with media containing different concentrations of an ACMSD inhibitor (i.e., Compound 1 or Compound 17) or with the corresponding concentration of DMSO (as a control). […]
as §3

AML-12 cells [5] = experiment: RT-qPCR analysis of SIRT1-regulated genes in AML-12 cells; assay type: cell-based, mouse; conditions: 24 hrs
Procedure: (§4) Cells (AML-12, Hepa-1.6, HEK-293, primary human and murine hepatocytes) are treated with different concentrations of a compound of Formula (I), Formula (Ia), Formula (Ib), Formula (II), or Formula (III), or a pharmaceutically acceptable salt thereof and the gene expression of ACMSD, Pgc1a, Sod1, and Sod2 (MnSOD) is determined using RT-qPCR. Total RNA is extracted from cells and the extracted RNA is treated with DNase and used for reverse transcription (RT).
(§5) Gene expression of ACMSD and genes known to be regulated by SIRT1, (an enzyme that is strictly NAD^+ dependent) such as Pgc1a, Sod1, Sod2 (MnSOD), were analysed in AML-12 cells, Hepa-1.6 cells and primary murine hepatocytes treated with Compound 1 or 17.
(§6) Cells (AML-12, Hepa-1.6, HEK-293, primary human and murine hepatocytes) were treated with different concentrations of Compound 1 or Compound 17. Total RNA was extracted from cells using TRIzol (Invitrogen) according to the manufacturer's instructions. The RNA was treated with DNase, and 2 μg of RNA was used for reverse transcription (RT). 50× diluted cDNA was used for RT-quantitative PCR (RT-qPCR) reactions. The RT-qPCR reactions were performed using the Light-Cycler system (Roche Applied Science) and a qPCR Supermix (QIAGEN) with the indicated primers. The average of at least three technical repeats was used for each biological data point.

Hepa-1.6 cells = experiment: RT-qPCR analysis of SIRT1-regulated genes in Hepa-1.6 cells; assay type: cell-based; conditions: 24 hrs
Procedure: as §4, §5, §6

[6] = system: murine primary hepatocytes; experiment: NAD+ content in murine primary hepatocytes (HPLC, mass-spectrometry); assay type: cell-based, mouse; conditions: 5 nM, 10 nM and 50 nM for 24 hours
[7] = system: primary mouse hepatocytes; experiment: RT-qPCR analysis of SIRT1-regulated genes in primary mouse hepatocytes; assay type: cell-based; conditions: 24 hrs, 5 nM-500 nM range
Procedure: as §4, §5, §6

[8] = system: human primary hepatocytes; experiment: NAD+ content in human primary hepatocytes by LCMS/MS; assay type: cell-based; conditions: tested at 0.5 μM and 5 μM; compound replaced every 24 hrs
Procedure: Primary hepatocytes are treated with different concentrations of a compound of Formula (I), Formula (Ia), Formula (Ib), Formula (II), or Formula (III), or a pharmaceutically acceptable salt thereof, or MEHP (control) after seeding. The compound is replaced every 24 hours, and then cells are directly harvested and lysed to detect NAD^+ content through LC MS/MS (liquid chromatography mass spectrometry/mass spectroscopy).
The NAD^+ concentration or content was determined in human primary hepatocytes treated with Compound 4. Vehicle (NT) was used as a control.
At least three experiments were run treating primary hepatocytes with different concentrations of Compound 4 (0.5 μM and 5 μM) after 48 hrs from seeding. Compound 4 was replaced every 24 hrs, and then cells were directly harvested and lysed with ACN/H2O (ratio 5:1). LCMS/MS was used to detect and measure NAD^+ concentration/content. […] (FIG. 1)
The NAD^+ concentration or content was determined in human primary hepatocytes treated with Compound 1 and MEHP, a known ACMSD inhibitor. MEHP was used as a control.
At least three experiments were run treating primary hepatocytes with different concentrations of Compound 1 (0.5 μM, 5 μM, and 50 μM) after 48 hrs from seeding. Compound 1 was replaced every 24 hrs, and then cells were directly harvested and lysed with ACN/H2O (ratio 5:1). […]

ACMSD-1, sequence (Q8TDX5 whole entry): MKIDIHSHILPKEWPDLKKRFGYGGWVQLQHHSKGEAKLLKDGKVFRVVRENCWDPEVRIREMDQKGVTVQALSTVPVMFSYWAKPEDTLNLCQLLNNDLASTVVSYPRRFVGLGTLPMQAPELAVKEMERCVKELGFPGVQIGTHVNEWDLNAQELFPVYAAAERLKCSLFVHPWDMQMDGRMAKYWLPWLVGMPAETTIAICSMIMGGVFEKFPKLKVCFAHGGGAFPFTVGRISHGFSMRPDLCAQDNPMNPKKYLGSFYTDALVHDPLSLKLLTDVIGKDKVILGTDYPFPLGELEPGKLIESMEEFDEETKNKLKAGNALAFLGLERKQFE

In the case of `N#Cc1c(-c2cccs2)nc(SCc2cccc(CC(=O)O)c2)[nH]c1=O` [Compound 18], the pEC50 (MDCK cells; 1 h, added one hour prior to cisplatin, 1 μM to 125 μM) was 4.52, the pEC50 (MDCK cells; added in combination with cisplatin, 0.01 μM to 100 μM) was 4.15 and the “activity of caspase 3/7 induced by cisplatin” value (MDCK cells; MDCK cells, cisplatin 50 μM for 16 hrs) was “decreases, in significant manner”.

With `O=C(O)c1cccc(CSc2nc(-c3ccccc3)c(Br)c(=O)[nH]2)c1` [Compound 11] the “Cytotoxicity Hep-G2” value (HePG2 cells) was “Not Toxic” and the “Cytotoxicity AML-12” value (AML-12 cells [1]) was “Not Toxic”.

`N#Cc1c(-c2ccccc2)nc(SCc2cccc(C(=O)O)c2)[nH]c1=O` [Compound 1] was tested, and the SOD2 activity [2] was “induced in a dose-dependent manner”, the “FoxO1 phosphorylation at Ser256” value [3] was “decrease” and the “ACMSD-1 activity in over-expression cell-based assay” value (ACMSD-1) was “inhibited ACMSD-1 activity, in a dose dependent manner”. The SOD2 activity [4] was “induced in a dose-dependent manner”, the “Sod2 mRNA levels” value (AML-12 cells [5]) was “increased in a dose-dependent manner” and the “Cytotoxicity Hep-G2” value (HePG2 cells) was “Not Toxic”. The “Sod2 mRNA levels” value (Hepa-1.6 cells) was “increased in a dose-dependent manner” and the “Cytotoxicity AML-12” value (AML-12 cells [1]) was “Not Toxic”.

For `N#Cc1c(-c2cccs2)nc(SCc2cccc(-c3nn[nH]n3)c2)[nH]c1=O` [Compound 17], the SOD2 activity [2] was “induced in a dose-dependent manner”, the “intra-cellular NAD+ levels” value [6] was “significant and dose-dependent increase; also recorded: increase in NAD^+ levels” and the “FoxO1 phosphorylation at Ser256” value [3] was “decrease”. For the same compound, the “Pgc1a mRNA expression level” value [7] was “dose-dependent increase”, the “Sod2 (MnSOD) mRNA expression level” value [7] was “dose-dependent increase” and the “dose at which effect on SOD2 activity reached a maximum” value ([4]; primary hepatocytes) was “about 50 nM”. The SOD2 activity [4] was “induced in a dose-dependent manner”, the “Cytotoxicity Hep-G2” value (HePG2 cells) was “Not Toxic” and the “Cytotoxicity AML-12” value (AML-12 cells [1]) was “Not Toxic”.

In the case of `N#Cc1c(-c2cccs2)nc(SCc2cccc(C(=O)O)c2)[nH]c1=O` [Compound 4], the “Cytotoxicity Hep-G2” value (HePG2 cells) was “Not Toxic”, the “concentration at which ACMSD-1 enzyme is inhibited (NAD+ content, FIG. 1)” value [8] was no more than 0.5 µM and the “Cytotoxicity AML-12” value (AML-12 cells [1]) was “Not Toxic”.

In the case of `N#Cc1c(-c2ccc(Cl)cc2)nc(SCc2ccc(C(=O)O)cc2)[nH]c1=O` [Compound 8], the “Cytotoxicity Hep-G2” value (HePG2 cells) was “Not Toxic” and the “Cytotoxicity AML-12” value (AML-12 cells [1]) was “Not Toxic”.

With `N#Cc1c(-c2cccs2)nc(SCc2cccc(-c3noc(=O)[nH]3)c2)[nH]c1=O` [Compound 19] the “Cytotoxicity Hep-G2” value (HePG2 cells) was “Not Toxic” and the “Cytotoxicity AML-12” value (AML-12 cells [1]) was “Not Toxic”.

`N#Cc1c(-c2nccs2)nc(SCc2cccc(C(=O)O)c2)[nH]c1=O` [Compound 5] was tested, and the “Cytotoxicity Hep-G2” value (HePG2 cells) was “Not Toxic” and the “Cytotoxicity AML-12” value (AML-12 cells [1]) was “Not Toxic”.

Source: patent publication US10513499B2, “Inhibitors of alpha-amino-beta-carboxymuconic acid semialdehyde decarboxylase” (TES Pharma S.r.l., priority 2014, dated 2019)
